Laboratory results from article PMC3064998, “In Vitro Selection of Cathepsin E-Activity-Enhancing Peptide Aptamers at Neutral pH” (International Journal of Peptides, 2011).
Ends that are not written are not given here.

Assays:
[1] = system: cathepsin E (CatE); test: CatE-activity-enhancement assay at neutral pH (fluorogenic substrate); assay type: biochemical, rat; conditions: pH 7.4; for Activities (%) Adp (CatE activity with in vitro translated peptide): CatE 20 nM : peptide 1:1 (20 nM), three independent experiments; for Activities (%) Adp (CatE activity with in vitro translated peptide) / Activities (%) Asy (CatE activity with chemically synthesized peptide): 50 mM Tris-HCl, 100 mM NaCl, preincubation 25°C 10 min, substrate 5 μM, 37°C 1 h, fluorescence ex 340/em 440 nm, 100% = CatE + substrate without peptide; for Activities (%) Asy (CatE activity with chemically synthesized peptide): CatE 20 nM : peptide 1:1
Method: (§1) A fluorogenic substrate susceptible at neutral pH to the protease cathepsin E, which usually functions at acidic pH, was designed as per reference: [Nma-Gly-Gly-Arg-Arg-Ser-Gly-Thy-Cys-Gly(Dnp)-D-Arg-NH2]. The peptide was custom-synthesized at Peptide Institute (Osaka, Japan) and confirmed to be an effective substrate at pH 7.4. The peptide was dissolved in dimethyl sulfoxide (DMSO) at 10 mM and stored in a deep freezer until use. The enzyme CatE was prepared from rat spleen according to the method previously described and immobilized on N-hydroxysuccinimide-activated sepharose beads (GE Healthcare, USA) using the amine-coupling method and stored in, 100 mM phosphate buffer (pH 7.4) at 4°C.
CatE-activation by peptide aptamers was assayed by the method described previously but with a few modifications. Briefly, the CatE (20 nM) solution preincubated with a peptide aptamer in a 1 : 1 molar ratio in the selection buffer (50 mM Tris-HCl, 100 mM NaCl, pH 7.4) at 25°C for 10 min. was combined with the fluorogenic substrate (5 μM) and the enzyme reaction performed at 37°C for 1 h. The reaction product was measured by fluorescence intensity at 440 nm with an excitation wavelength of 340 nm using a fluorescence microplate reader, Infinite 200 (Tecan, Japan). The percentage of activation (A) was calculated by fitting the data to the following equation:
(1) A=100×Sf−Bf/Cf−Bf [% activation], where Sf represents the fluorescence intensity of the positive reaction consisting of the enzyme (CatE), the fluorogenic substrate, and a possible peptide activator; C f is that of the control reaction mixture consisting of CatE and fluorogenic substrate (without peptide activator); B f is the background fluorescence of the negative reaction mixture consisting of only the fluorogenic substrate.

[2] = target: T1, cathepsin E (Rattus norvegicus, UniProt P16228); test: SPR (Biacore 2000) measurement of KD; conditions: CatE immobilized on CM5 chip, running buffer 50 mM Tris-HCl, 100 mM NaCl, pH 7.4, four peptide concentrations, 1:1 binding with mass transfer model, unit M printed in b35 only, read-out: KD (dissociation constant)
T1 construct: The enzyme CatE was prepared from rat spleen according to the method previously described; from tissue; host or cells: rat spleen
T1 sequence (P16228 59-398): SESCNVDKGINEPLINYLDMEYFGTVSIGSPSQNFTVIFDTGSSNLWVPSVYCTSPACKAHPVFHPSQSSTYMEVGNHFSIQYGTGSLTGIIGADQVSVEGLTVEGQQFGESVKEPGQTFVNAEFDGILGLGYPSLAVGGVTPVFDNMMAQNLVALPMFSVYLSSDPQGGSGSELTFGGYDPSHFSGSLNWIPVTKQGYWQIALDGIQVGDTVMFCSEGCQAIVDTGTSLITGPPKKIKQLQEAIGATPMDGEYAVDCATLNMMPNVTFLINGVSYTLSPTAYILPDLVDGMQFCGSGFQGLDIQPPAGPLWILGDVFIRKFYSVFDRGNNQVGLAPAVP
Method: as §1
An SPR instrument, Biacore 2000 (GE Healthcare, UK), was used for measuring KD for the binding of cathepsin E and selected peptides. Cathepsin E was immobilized onto Biacore sensor chip CM5 (GE Healthcare, UK) by the amine-coupling method using an Amine Coupling Kit (GE Healthcare, UK). Immobilization of cathepsin E was performed using running buffer (50 mM sodium acetate, 100 mM NaCl, pH 4.5). To determine dissociation constants, four different concentrations of selected peptides were used for the interaction. […] The binding data were analyzed with the 1 : 1 binding with mass transfer model in the BIAevaluation software version 4 : 1 (Biacore).

[3] = target: T2, P1 (p2006) peptide aptamer; test: SPR
T2 chain: VGCDFMYV

[4] = target: T3, P3 (p3006) peptide aptamer; test: SPR
T3 chain: IEGRVGCDFMYVG

[5] = target: T4, S3 (p4038) peptide aptamer; test: SPR
T4 chain: IGCEERSFPNIIIIIG

SPIISHIVGCDPPSCG [S1]
Activities (%) Adp (CatE activity with in vitro translated peptide) [1]: 160 ± 20%

IEGRVGCDFMYVG [P3]
Kd [2]: 334 nM

IGCEERSFPNIIIIIG [S3]
Kd [2]: 389 nM

PGIKPPPCIIIIG [S2]
Activities (%) Asy (CatE activity with chemically synthesized peptide) [1]: 144.5 ± 11% | Activities (%) Adp (CatE activity with in vitro translated peptide) [1]: 180 ± 10%

KGPPPCPC [P2]
Activities (%) Asy (CatE activity with chemically synthesized peptide) [1]: 110 ± 4% | Activities (%) Adp (CatE activity with in vitro translated peptide) [1]: 128 ± 20% | enhancement of CatE-activity (increase over control) ([1]; in vitro translation synthesized peptides): 10 to 30%

B1: Cathepsin E (protein)
chain: T1 sequence (P16228 59-398)
Kd [3]: ~10000 nM | Kd [4]: 334 nM | Kd [5]: 389 nM
